Reference: patent US8044069B2, “Compounds as calcium channel blockers” (Abbott Laboratories, priority 2008, dated 2011)

Each compound was assayed against human Cav2.2 (Homo sapiens, UniProt Q00975) (assay: Assessment of calcium channel activity using FLIPR (Ca2+ influx in IMR32 cells)). Conditions: IMR32 cells endogenously expressing human Cav2.2; 60 minute pre-incubation; 2 μM nifedipine; depolarized with 80 mM KCl, 5 mM CaCl2.
Chain of human Cav2.2 (Q00975 whole entry): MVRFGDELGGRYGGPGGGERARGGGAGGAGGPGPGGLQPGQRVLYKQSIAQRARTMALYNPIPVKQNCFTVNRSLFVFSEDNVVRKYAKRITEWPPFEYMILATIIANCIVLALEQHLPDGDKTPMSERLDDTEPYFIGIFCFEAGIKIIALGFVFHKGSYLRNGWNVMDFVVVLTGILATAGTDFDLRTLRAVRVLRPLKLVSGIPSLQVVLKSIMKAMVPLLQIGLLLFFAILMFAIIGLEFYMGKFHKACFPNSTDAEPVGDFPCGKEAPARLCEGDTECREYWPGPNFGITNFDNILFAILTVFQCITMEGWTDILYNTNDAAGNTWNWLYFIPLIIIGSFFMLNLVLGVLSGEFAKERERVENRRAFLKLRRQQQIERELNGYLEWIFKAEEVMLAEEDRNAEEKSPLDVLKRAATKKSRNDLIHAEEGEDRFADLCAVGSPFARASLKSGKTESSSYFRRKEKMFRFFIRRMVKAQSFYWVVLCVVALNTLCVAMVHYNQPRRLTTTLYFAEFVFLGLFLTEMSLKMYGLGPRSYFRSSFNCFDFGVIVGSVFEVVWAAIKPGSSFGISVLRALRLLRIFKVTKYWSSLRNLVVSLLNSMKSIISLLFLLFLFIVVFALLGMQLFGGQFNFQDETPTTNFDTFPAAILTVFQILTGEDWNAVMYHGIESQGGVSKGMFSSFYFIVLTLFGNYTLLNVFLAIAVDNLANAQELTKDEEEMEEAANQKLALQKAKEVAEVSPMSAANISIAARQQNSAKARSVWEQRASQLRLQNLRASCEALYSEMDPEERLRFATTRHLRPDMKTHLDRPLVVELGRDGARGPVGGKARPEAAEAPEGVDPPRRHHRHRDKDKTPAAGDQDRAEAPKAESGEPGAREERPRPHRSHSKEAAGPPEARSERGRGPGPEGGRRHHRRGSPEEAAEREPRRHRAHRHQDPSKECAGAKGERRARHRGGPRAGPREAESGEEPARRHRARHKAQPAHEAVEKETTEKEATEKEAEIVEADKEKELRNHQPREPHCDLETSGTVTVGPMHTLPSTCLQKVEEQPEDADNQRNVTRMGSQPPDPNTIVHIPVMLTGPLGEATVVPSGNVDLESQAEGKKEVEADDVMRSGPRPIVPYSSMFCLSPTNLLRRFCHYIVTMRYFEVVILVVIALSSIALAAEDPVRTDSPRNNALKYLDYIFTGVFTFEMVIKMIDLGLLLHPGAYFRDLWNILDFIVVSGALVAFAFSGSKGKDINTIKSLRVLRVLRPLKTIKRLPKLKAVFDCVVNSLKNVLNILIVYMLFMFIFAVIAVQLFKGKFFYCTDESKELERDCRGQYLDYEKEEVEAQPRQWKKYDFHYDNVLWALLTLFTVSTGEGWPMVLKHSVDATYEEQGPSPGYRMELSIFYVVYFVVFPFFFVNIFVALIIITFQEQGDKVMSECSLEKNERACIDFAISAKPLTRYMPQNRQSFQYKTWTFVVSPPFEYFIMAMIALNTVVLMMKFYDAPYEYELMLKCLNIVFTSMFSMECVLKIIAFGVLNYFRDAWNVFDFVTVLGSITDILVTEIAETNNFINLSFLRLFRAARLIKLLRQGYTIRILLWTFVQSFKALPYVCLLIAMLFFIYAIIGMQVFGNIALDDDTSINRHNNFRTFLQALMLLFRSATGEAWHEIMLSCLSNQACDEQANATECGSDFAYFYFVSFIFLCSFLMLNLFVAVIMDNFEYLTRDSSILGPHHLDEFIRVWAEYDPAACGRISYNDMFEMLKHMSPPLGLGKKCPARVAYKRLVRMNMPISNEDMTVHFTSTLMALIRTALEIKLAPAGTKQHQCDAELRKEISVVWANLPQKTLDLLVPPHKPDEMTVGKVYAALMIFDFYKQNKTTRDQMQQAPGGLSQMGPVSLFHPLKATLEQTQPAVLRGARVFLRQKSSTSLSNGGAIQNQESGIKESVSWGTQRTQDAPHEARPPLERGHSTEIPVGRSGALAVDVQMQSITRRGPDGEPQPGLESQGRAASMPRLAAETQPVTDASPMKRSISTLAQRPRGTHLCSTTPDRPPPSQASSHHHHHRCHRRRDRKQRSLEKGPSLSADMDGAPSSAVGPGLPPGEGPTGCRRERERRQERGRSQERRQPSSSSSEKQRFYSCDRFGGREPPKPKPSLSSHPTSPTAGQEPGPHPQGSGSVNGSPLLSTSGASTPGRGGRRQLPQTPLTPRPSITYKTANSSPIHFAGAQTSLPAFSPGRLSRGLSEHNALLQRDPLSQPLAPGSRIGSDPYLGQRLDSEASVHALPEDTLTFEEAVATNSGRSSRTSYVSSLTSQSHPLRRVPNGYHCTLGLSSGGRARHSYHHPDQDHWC
Chain of human Cav2.2 (P54289 25-951 partner limits assumed): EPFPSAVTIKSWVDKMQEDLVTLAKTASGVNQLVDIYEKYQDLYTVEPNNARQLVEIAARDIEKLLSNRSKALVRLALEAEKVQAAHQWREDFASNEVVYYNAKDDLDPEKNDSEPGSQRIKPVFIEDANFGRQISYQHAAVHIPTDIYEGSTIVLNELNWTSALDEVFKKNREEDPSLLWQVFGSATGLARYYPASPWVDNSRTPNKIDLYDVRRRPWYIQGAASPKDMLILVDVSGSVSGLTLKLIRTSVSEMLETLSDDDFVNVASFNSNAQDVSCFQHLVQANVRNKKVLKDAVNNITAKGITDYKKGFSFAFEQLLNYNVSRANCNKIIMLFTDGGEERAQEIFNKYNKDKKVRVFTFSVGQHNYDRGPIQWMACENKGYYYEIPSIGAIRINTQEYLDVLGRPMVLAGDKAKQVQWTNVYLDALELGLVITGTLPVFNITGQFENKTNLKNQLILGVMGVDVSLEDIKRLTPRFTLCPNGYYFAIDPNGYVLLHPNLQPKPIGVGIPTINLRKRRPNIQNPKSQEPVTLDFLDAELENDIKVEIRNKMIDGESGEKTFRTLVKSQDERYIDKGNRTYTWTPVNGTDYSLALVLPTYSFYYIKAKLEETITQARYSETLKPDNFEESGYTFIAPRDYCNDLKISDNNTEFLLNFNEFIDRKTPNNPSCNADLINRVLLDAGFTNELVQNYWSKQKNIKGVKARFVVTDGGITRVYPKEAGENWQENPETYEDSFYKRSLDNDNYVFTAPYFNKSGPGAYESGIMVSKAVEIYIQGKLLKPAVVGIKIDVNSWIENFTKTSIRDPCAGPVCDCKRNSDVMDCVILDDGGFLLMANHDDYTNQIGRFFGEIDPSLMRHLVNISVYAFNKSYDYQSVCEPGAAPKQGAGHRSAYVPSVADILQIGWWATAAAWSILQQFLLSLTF
Chain of human Cav2.2 (P54289 952-1103 partner limits assumed): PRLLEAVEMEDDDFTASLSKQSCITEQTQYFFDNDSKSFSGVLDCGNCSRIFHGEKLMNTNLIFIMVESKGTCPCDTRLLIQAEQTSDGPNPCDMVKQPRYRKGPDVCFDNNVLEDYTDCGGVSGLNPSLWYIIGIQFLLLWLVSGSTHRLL
Chain of human Cav2.2 (P54284 whole entry partner): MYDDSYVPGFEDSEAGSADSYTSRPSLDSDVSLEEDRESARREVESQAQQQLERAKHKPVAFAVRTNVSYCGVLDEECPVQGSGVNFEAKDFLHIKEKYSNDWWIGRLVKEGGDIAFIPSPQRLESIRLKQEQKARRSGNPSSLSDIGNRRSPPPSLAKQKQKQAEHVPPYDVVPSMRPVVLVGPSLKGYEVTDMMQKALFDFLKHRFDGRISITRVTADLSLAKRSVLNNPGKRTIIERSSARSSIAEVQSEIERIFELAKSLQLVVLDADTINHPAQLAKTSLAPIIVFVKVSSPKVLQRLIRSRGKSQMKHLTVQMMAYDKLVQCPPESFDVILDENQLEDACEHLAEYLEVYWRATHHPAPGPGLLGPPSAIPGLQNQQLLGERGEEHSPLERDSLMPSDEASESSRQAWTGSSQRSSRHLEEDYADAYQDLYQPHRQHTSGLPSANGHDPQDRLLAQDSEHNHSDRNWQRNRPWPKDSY
Format: cell-based
In short: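 FLIPR measured Ca2+ influx triggered by 80 mM KCl depolarization together with a step to 5 mM external CaCl2. Percent inhibition relative to uninhibited activity was fitted sigmoidally for IC50.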
`O=C1N(Cc2nc(-c3ccc(C(F)(F)F)nc3)no2)CCC1(c1ccccc1)c1ccccc1` [Example 211, 3,3-diphenyl-1-({3-[6-(trifluoromethyl)pyridin-3-yl]-1,2,4-oxadiazol-5-yl}methyl)pyrrolidin-2-one] gave an IC50 of 3.15 µM. `O=C1N(Cc2nc(-c3ccc(C(F)(F)F)nc3)no2)CCC1(c1ccc(F)cc1)c1ccc(F)cc1` [Example 212, 3,3-bis(4-fluorophenyl)-1-({3-[6-(trifluoromethyl)pyridin-3-yl]-1,2,4-oxadiazol-5-yl}methyl)pyrrolidin-2-one] gave an IC50 of 2.63 µM. `O=C1N(Cc2nc(CCc3ccc(Cl)cc3)no2)CCCC1(c1ccccc1)c1ccccc1` [Example 213, 1-({3-[2-(4-chlorophenyl)ethyl]-1,2,4-oxadiazol-5-yl}methyl)-3,3-diphenylpiperidin-2-one] showed an IC50 of 1.6 µM. `O=C1N(Cc2nc(-c3ccc(Cl)nc3)no2)CCC1(c1ccccc1)c1ccccc1` [Example 214, 1-{[3-(6-chloropyridin-3-yl)-1,2,4-oxadiazol-5-yl]methyl}-3,3-diphenylpyrrolidin-2-one] gave an IC50 of 2.78 µM. `O=C1N(Cc2nc(-c3cc(F)cc(F)c3)no2)CCC1(c1ccccc1)c1ccccc1` [Example 215, 1-{[3-(3,5-difluorophenyl)-1,2,4-oxadiazol-5-yl]methyl}-3,3-diphenylpyrrolidin-2-one] was tested, and the IC50 was 6.89 µM. Compound `O=C(CN1CCC(c2ccc(F)cc2)C1=O)N1Cc2ccc(C(F)(F)F)cc2C1` (stereo not drawn) [Example 216, 3-(4-fluorophenyl)-1-{2-oxo-2-[5-(trifluoromethyl)-1,3-dihydro-2H-isoindol-2-yl]ethyl}pyrrolidin-2-one] has an IC50 of 9.43 µM. `O=C(CN1CCC(c2ccc(F)cc2)(c2ccc(F)cc2)C1=O)Nc1ccc(C(F)(F)F)cn1` [Example 217, 2-[3,3-bis(4-fluorophenyl)-2-oxopyrrolidin-1-yl]-N-[5-(trifluoromethyl)pyridin-2-yl]acetamide] was tested, and the IC50 was 2.62 µM. With `O=C(CN1CCC(c2ccc(F)cc2)(c2ccc(F)cc2)C1=O)Nc1ccc(C(F)(F)F)cc1` [Example 218, 2-[3,3-bis(4-fluorophenyl)-2-oxopyrrolidin-1-yl]-N-[4-(trifluoromethyl)phenyl]acetamide] the IC50 was 6.8 µM. `O=C1N(Cc2nc(-c3cncc(C(F)(F)F)c3)no2)CCC1(c1ccccc1)c1ccccc1` [Example 219, 3,3-diphenyl-1-({3-[5-(trifluoromethyl)pyridin-3-yl]-1,2,4-oxadiazol-5-yl}methyl)pyrrolidin-2-one] showed an IC50 of 2.93 µM. `O=C1N(Cc2nc(-c3cnccc3C(F)(F)F)no2)CCC1(c1ccccc1)c1ccccc1` [Example 220, 3,3-diphenyl-1-({3-[4-(trifluoromethyl)pyridin-3-yl]-1,2,4-oxadiazol-5-yl}methyl)pyrrolidin-2-one] showed an IC50 of 1.99 µM. Compound `O=C1N(Cc2nc(-c3cccnc3)no2)CCC1(c1ccccc1)c1ccccc1` [Example 221, 3,3-diphenyl-1-[(3-pyridin-3-yl-1,2,4-oxadiazol-5-yl)methyl]pyrrolidin-2-one] has an IC50 of 5.67 µM. Compound `O=C1N(Cc2nc(-c3ccncc3)no2)CCC1(c1ccccc1)c1ccccc1` [Example 222, 3,3-diphenyl-1-[(3-pyridin-4-yl-1,2,4-oxadiazol-5-yl)methyl]pyrrolidin-2-one] has an IC50 of 5.43 µM. In the case of `O=C(CCCN1CCC(c2ccccc2)(c2ccccc2)C1=O)N1Cc2ccc(C(F)(F)F)cc2C1` [Example 223, 1-{4-oxo-4-[5-(trifluoromethyl)-1,3-dihydro-2H-isoindol-2-yl]butyl}-3,3-diphenylpyrrolidin-2-one], the IC50 is reported as 2.04 µM. In the case of `O=C(CN1CCC(c2ccc(F)cc2)(c2ccc(F)cc2)C1=O)Nc1ccc(C(F)(F)F)nc1` [Example 224, 2-[3,3-bis(4-fluorophenyl)-2-oxopyrrolidin-1-yl]-N-[6-(trifluoromethyl)pyridin-3-yl]acetamide], the IC50 is reported as 3.88 µM. With `O=C(CN1CCC(c2ccc(F)cc2)(c2ccc(F)cc2)C1=O)Nc1ccc(Cl)cn1` [Example 225, 2-[3,3-bis(4-fluorophenyl)-2-oxopyrrolidin-1-yl]-N-(5-chloropyridin-2-yl)acetamide] the IC50 was 2.48 µM. With `O=C(CN1CCC(c2ccc(F)cc2)(c2ccc(F)cc2)C1=O)Nc1cccc(C(F)(F)F)n1` [Example 226, 2-[3,3-bis(4-fluorophenyl)-2-oxopyrrolidin-1-yl]-N-[6-(trifluoromethyl)pyridin-2-yl]acetamide] the IC50 was 2.46 µM. With `O=C(CN1CCC(c2ccc(F)cc2)C1=O)N1Cc2ccc(F)cc2C1` (stereo not drawn) [Example 227, 1-[2-(5-fluoro-1,3-dihydro-2H-isoindol-2-yl)-2-oxoethyl]-3-(4-fluorophenyl)pyrrolidin-2-one] the IC50 was 12.1 µM. Compound `O=C(CN1CCC(c2ccc(F)cc2)(c2ccc(F)cc2)C1=O)N1Cc2ccc(C(F)(F)F)cc2C1` [Example 228, 3,3-bis(4-fluorophenyl)-1-{2-oxo-2-[5-(trifluoromethyl)-1,3-dihydro-2H-isoindol-2-yl]ethyl}pyrrolidin-2-one] has an IC50 of 1.53 µM. For `O=C1N(Cc2nc(-c3cnccn3)no2)CCC1(c1ccccc1)c1ccccc1` [Example 230, 3,3-diphenyl-1-[(3-pyrazin-2-yl-1,2,4-oxadiazol-5-yl)methyl]pyrrolidin-2-one], the IC50 was 8.99 µM. In the case of `CC(C)(C)OC(=O)Nc1ccc(-c2noc(CN3CCC(c4ccccc4)(c4ccccc4)C3=O)n2)cn1` [Example 231, tert-butyl 5-{5-[(2-oxo-3,3-diphenylpyrrolidin-1-yl)methyl]-1,2,4-oxadiazol-3-yl}pyridin-2-ylcarbamate], the IC50 is reported as over 30 µM. `O=C1N(Cc2nc(-c3cnccn3)no2)CCC1(c1ccc(F)cc1)c1ccc(F)cc1` [Example 232, 3,3-bis(4-fluorophenyl)-1-[(3-pyrazin-2-yl-1,2,4-oxadiazol-5-yl)methyl]pyrrolidin-2-one] showed an IC50 of 1.91 µM. With `O=C1N(Cc2nc(-c3ccc(Br)cc3)no2)CCC1(c1ccc(F)cc1)c1ccc(F)cc1` [Example 233, 1-{[3-(4-bromophenyl)-1,2,4-oxadiazol-5-yl]methyl}-3,3-bis(4-fluorophenyl)pyrrolidin-2-one] the IC50 was 6.29 µM. `Nc1ccc(-c2noc(CN3CCC(c4ccccc4)(c4ccccc4)C3=O)n2)cn1` [Example 234, 1-{[3-(6-aminopyridin-3-yl)-1,2,4-oxadiazol-5-yl]methyl}-3,3-diphenylpyrrolidin-2-one] gave an IC50 of 6.54 µM. With `N#Cc1ccc(-c2noc(CN3CCC(c4ccc(F)cc4)(c4ccc(F)cc4)C3=O)n2)cc1` [Example 235, 4-(5-{[3,3-bis(4-fluorophenyl)-2-oxopyrrolidin-1-yl]methyl}-1,2,4-oxadiazol-3-yl)benzonitrile] the IC50 was 3.18 µM. Compound `O=C1C(c2ccc(F)cc2)CCN1Cc1nc(-c2ccc(C(F)(F)F)nc2)no1` (stereo not drawn) [Example 238, 3-(4-fluorophenyl)-1-({3-[6-(trifluoromethyl)pyridin-3-yl]-1,2,4-oxadiazol-5-yl}methyl)pyrrolidin-2-one] has an IC50 of 12.4 µM. `O=C(CN1CCC(c2ccc(F)cc2)(c2ccc(F)cc2)C1=O)NC1CN(Cc2ccc(C(F)(F)F)c(F)c2)C1` [Example 239, 2-[3,3-bis(4-fluorophenyl)-2-oxopyrrolidin-1-yl]-N-{1-[3-fluoro-4-(trifluoromethyl)benzyl]azetidin-3-yl}acetamide] showed an IC50 of 1.74 µM. For `O=C(CN1CCCC(c2ccccc2)(c2ccccc2)C1=O)N1CC(c2ccc(C(F)(F)F)cc2)C1` [Example 240, 1-(2-oxo-2-{3-[4-(trifluoromethyl)phenyl]azetidin-1-yl}ethyl)-3,3-diphenylpiperidin-2-one], the IC50 was 3.07 µM. In the case of `N#Cc1ccc(C2CN(C(=O)CN3CCCC(c4ccccc4)(c4ccccc4)C3=O)C2)cc1` [Example 241, 4-{1-[(2-oxo-3,3-diphenylpiperidin-1-yl)acetyl]azetidin-3-yl}benzonitrile], the IC50 is reported as 8.96 µM. `O=C(CN1CCC(c2ccc(F)cc2)(c2ccc(F)cc2)C1=O)NC1CN(Cc2ccccc2)C1` [Example 242, N-(1-benzylazetidin-3-yl)-2-[3,3-bis(4-fluorophenyl)-2-oxopyrrolidin-1-yl]acetamide] gave an IC50 of 3.17 µM. For `O=C(CN1CCCC(c2ccccc2)(c2ccccc2)C1=O)N1CCC(c2cccc(C(F)(F)F)c2)CC1` [Example 243, 1-(2-oxo-2-{4-[3-(trifluoromethyl)phenyl]piperidin-1-yl}ethyl)-3,3-diphenylpiperidin-2-one], the IC50 was 4.37 µM. Work on `O=C(CN1CCCC(c2ccccc2)(c2ccccc2)C1=O)N1CCC(c2ccc(F)cc2)CC1` [Example 244, 1-{2-[4-(4-fluorophenyl)piperidin-1-yl]-2-oxoethyl}-3,3-diphenylpiperidin-2-one] yielded an IC50 of 3.69 µM. With `O=C(CN1CCCC(c2ccccc2)(c2ccccc2)C1=O)N1CCC(c2ccc(C(F)(F)F)cc2)CC1` [Example 245, 1-(2-oxo-2-{4-[4-(trifluoromethyl)phenyl]piperidin-1-yl}ethyl)-3,3-diphenylpiperidin-2-one] the IC50 was 4.48 µM. For `O=C(CN1CCC(c2ccccc2)(c2ccccc2)C1=O)Nc1ccc(C(F)(F)F)cn1` [Example 246, 2-(2-oxo-3,3-diphenylpyrrolidin-1-yl)-N-[5-(trifluoromethyl)pyridin-2-yl]acetamide], the IC50 was 3.77 µM. In the case of `O=C(CN1CCC(c2ccccc2)(c2ccccc2)C1=O)Nc1cccc(C(F)(F)F)n1` [Example 247, 2-(2-oxo-3,3-diphenylpyrrolidin-1-yl)-N-[6-(trifluoromethyl)pyridin-2-yl]acetamide], the IC50 is reported as 4.48 µM. With `O=C(CN1CCC(c2ccccc2)(c2ccccc2)C1=O)Nc1ccc(C(F)(F)F)nc1` [Example 248, 2-(2-oxo-3,3-diphenylpyrrolidin-1-yl)-N-[6-(trifluoromethyl)pyridin-3-yl]acetamide] the IC50 was 8.84 µM. For `O=C(CN1CCC(c2ccccc2)(c2ccccc2)C1=O)Nc1ncc(C(F)(F)F)cc1Cl` [Example 249, N-[3-chloro-5-(trifluoromethyl)pyridin-2-yl]-2-(2-oxo-3,3-diphenylpyrrolidin-1-yl)acetamide], the IC50 was 6.48 µM.
